From article PMC5051865, “The Effect of Albumin on MRP2 and BCRP in the Vesicular Transport Assay” (PLoS ONE, 2016)
Where two headings read alike, the source gives them in different places.

Assays:
[1] = target: T1, bovine serum albumin (BSA) (Bos taurus, UniProt P02769); test: Substrate binding to BSA, rapid equilibrium dialysis (RED); type: in vitro ADME; conditions: for fu (± SD): 37°C, 7 h, n = 3
T1 construct: purchased Sigma-Aldrich (St. Louis, MO)
Source text: The fraction of unbound substrate in the presence of BSA was studied with the rapid equilibrium dialysis (RED) device (Thermo Scientific, Waltham, MA). In the RED system, two chambers in a well are separated with dialysis membrane. The transporter substrate (CDCF, E217βG or LY) was placed in the donor chamber in assay buffer with control membrane vesicles in the presence or absence of BSA to mimic the VT assay conditions. The final concentrations of BSA was 0.1% or 1.0%. Plain assay buffer was pipetted into the receiver chambers of all wells until the liquid level of both chambers was equal. […] Samples were incubated at 37°C on an orbital shaker. After 7 hour incubation, a small aliquot was collected from each receiver chamber for analysis. The relative fraction of unbound substrate (fu) was calculated as the ratio of concentrations in the receiver chambers from the samples with and without BSA.
Acetonitrile and phosphate buffers were used as mobile phase and flow rate was 0.5 ml/min.

human MRP2 [2] = target: T2, human MRP2 (Homo sapiens, UniProt Q92887)
T2 sequence (Q92887 whole entry): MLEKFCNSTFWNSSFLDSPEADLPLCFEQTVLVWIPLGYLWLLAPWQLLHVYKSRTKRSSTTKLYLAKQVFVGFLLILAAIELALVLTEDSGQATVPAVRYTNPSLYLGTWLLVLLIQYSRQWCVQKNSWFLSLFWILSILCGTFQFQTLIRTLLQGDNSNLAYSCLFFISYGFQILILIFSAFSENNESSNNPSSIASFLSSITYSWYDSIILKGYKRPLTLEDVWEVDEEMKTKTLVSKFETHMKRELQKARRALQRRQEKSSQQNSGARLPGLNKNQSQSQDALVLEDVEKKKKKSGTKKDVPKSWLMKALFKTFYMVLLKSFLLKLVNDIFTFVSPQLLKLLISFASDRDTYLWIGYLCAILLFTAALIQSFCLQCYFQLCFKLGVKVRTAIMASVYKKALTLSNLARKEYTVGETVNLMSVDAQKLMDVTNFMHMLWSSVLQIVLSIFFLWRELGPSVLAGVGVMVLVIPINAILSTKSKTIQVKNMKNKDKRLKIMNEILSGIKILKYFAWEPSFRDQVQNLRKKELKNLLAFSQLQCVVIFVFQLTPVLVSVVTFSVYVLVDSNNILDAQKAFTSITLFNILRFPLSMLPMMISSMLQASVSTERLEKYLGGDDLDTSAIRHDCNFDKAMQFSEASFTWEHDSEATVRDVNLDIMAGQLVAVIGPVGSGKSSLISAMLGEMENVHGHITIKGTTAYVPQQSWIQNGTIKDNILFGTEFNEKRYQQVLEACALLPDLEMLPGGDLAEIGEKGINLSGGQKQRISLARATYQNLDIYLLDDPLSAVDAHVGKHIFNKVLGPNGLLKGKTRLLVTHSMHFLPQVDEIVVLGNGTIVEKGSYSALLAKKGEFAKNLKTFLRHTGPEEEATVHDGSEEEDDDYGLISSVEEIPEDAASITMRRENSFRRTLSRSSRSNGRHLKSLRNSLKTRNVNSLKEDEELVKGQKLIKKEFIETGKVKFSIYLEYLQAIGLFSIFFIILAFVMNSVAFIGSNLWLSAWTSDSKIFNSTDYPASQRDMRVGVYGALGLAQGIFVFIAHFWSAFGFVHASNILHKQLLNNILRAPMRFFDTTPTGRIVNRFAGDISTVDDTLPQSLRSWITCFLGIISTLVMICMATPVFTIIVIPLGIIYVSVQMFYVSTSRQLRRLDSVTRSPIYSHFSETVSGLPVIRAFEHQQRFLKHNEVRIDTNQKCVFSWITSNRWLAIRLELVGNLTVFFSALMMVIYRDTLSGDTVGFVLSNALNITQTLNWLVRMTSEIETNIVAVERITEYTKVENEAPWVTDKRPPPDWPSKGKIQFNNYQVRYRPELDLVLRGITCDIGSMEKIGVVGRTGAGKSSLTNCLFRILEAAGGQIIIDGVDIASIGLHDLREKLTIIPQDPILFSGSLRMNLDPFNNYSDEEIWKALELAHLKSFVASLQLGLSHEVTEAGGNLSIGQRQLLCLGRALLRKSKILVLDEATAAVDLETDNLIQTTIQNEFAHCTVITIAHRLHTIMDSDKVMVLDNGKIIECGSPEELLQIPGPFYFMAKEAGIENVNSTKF
Source text: v=Vmax[S]^h/Km^h+[S]^h (2)

UGT2A1 = tested on: UGT2A1; parameters: method as in PMID 23372764; conditions: cited from earlier work
UGT1A7 = tested on: UGT1A7; parameters: method as in PMID 23372764; conditions: cited from earlier work
UGT2B7 = conditions: cited from earlier work
BCRP [3] = tested on: BCRP; parameters: method as in PMID 22819932; conditions: Caco-2 cells, oleic acid > 1 mM; cited from earlier work
human BCRP [4] = target: T3, human BCRP (Homo sapiens, UniProt Q9UNQ0); test: Inhibition of LY uptake into BCRP vesicles by oleic acid (VT assay)
T3 sequence (Q9UNQ0 1-655): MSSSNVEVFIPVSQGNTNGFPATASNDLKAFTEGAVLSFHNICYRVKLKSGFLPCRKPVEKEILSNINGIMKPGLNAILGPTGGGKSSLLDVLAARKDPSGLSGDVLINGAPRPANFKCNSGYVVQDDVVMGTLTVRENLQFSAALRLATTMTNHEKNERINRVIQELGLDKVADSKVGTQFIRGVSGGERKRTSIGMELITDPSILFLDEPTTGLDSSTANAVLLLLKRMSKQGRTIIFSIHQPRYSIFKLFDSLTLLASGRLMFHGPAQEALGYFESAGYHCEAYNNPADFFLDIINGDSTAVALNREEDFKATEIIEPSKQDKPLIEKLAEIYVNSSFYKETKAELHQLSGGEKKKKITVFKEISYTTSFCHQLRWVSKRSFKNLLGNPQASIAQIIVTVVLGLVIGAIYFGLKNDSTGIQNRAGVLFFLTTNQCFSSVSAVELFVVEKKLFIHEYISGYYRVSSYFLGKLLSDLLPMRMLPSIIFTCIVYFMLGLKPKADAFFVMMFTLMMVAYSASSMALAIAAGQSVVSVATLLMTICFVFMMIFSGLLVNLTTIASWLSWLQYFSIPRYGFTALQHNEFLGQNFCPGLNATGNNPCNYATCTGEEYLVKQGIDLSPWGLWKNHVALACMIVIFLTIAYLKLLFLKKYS
Experimental: (§1) The modulation of MRP2 and BCRP uptake by fatty acid oleic acid was also studied with the VT assay. The assay was performed as above, but oleic acid was present at various concentrations. The probe concentration in these studies was 5 μM for CDCF and 50 μM for LY. Plain vehicle (70% ethanol) was used as a control.
(§2) The oleic acid concentration required for 50% inhibition (IC50), was calculated from the concentration-response data using four parameter logistic regression, Response=Responsemin+Responsemax−Responsemin/1+([I]/IC50)^h (3) where response is the control normalized ATP-dependent uptake (%), Responsemin and Responsemax represent the plateaus corresponding to minimal and maximal normalized uptake (%), [I] is the concentration of inhibitor (μM), IC50 is the inhibitor concentration required for a response half-way between minimal and maximal response (μM) and h is the Hill coefficient. The Responsemin term was constrained to be larger than zero, where zero indicates full abolishment of uptake.

BCRP [5] = tested on: BCRP; parameters: method as in PMID 24342797; conditions: sandwich-cultured hepatocytes, oleic acid > 1 mM; cited from earlier work
human MRP2 [6] = target: T2, human MRP2; test: Inhibition of CDCF uptake into MRP2 vesicles by oleic acid (VT assay); conditions: 5 μM CDCF
Experimental: as §1, §2

[7] = tested on: CYPs, human liver microsomes; parameters: method as in PMID 18256202, PMID 21305272; conditions: cited from earlier work
human BCRP [8] = target: T3, human BCRP; conditions: BCRP vesicles; for increase in maximal LY uptake by BCRP: 0.1% BSA vs no BSA; for Km: cholesterol loaded, best fit value (± standard error)
Experimental: Sf9 cells were cultured in suspension in HyQ SFX-Insect MP medium (Thermo Fisher Scientific, Waltham, MA) supplemented with 5% fetal bovine serum. Cells were infected with recombinant baculovirus-DNA and harvested and washed with phosphate buffered saline (PBS) approximately 60 hours after infection. Membranes were prepared from the cells using a modification of the Chu et al. [30] method as described in detail in [29]. To form the vesicles, the suspension was passed 10 times through a LIPEX™ Extruder (Northern Lipids Inc., Burnaby, BC, Canada) or 20 times through a 27 gauge needle. Protein concentration was measured using the Bio-Rad protein assay (Bio-Rad Laboratories Inc., Hercules, CA). Vesicles were stored at -75°C at protein concentrations of 3.5–5 mg/ml.
To improve the dynamic range of the assay, BCRP membranes were loaded with cholesterol similarly to Telbisz et al. [31], by incubating the membranes on ice for 20 minutes in the presence of the water-soluble cholesterol complex at a total concentration of 2.5 mM cholesterol. Excess of the complex was removed by diluting the mixture and centrifugation at 100 000 g at + 4°C for 1 h 15 min. The remaining membrane pellet was resuspended in membrane buffer (50 mM Tris–HCl pH 7.0, 50 mM mannitol, 2 mM EGTA). The resulting cholesterol concentration in the vesicles was roughly 100 μg/mg total protein as measured using the Amplex Red Cholesterol kit (Life Technologies, Carlsbad, CA).
The assay was carried out as a modification of the PREDIVEZ™ Vesicular Transport Kit protocol (SOLVO Biotechnology, Szeged, Hungary). In short, vesicle stocks were thawed and diluted with assay buffer (40 mM MOPS–Tris pH 7.0, 60 mM KCl, 6 mM MgCl2). The substrate at various concentrations was added subsequently with 0.1% or 1.0% BSA (w/v), or an equivalent volume of deionized water for the control. […] The well plate was preincubated at 37°C for 5–10 minutes after which half of the samples were treated with prewarmed plain assay buffer (non-ATP control), and the other half with prewarmed Mg-ATP-solution (final concentration 4 mM). […] Transport was terminated with ice cold washing buffer (40 mM MOPS-Tris pH 7.0 and 70 mM KCl). Samples were quickly transferred to the MultiScreenHTS-FB Plate Glass fiber 1.0 μm / 0.65 μm Durapore filter plate (Millipore, Molsheim, France). Wells were immediately washed five times with 200 μl washing buffer and dried. 0.1 M sodium hydroxide was used to elute LY and CDCF, which were detected by fluorescence measurement.
ATP-dependent transport was calculated as the difference between uptake in the presence and absence of ATP. All assays were performed in triplicates on a 96-well plate. Curve fitting to the data was performed with GraphPad Prism 6.04 (GraphPad Software Inc., La Jolla, CA). Substrate data was fitted with the Michaelis-Menten equation v=Vmax[S]/Km+[S] (1) where v is the velocity of ATP-dependent transport, Vmax is the maximal transport velocity, [S] is the substrate concentration and Km is the Michaelis-Menten constant.

[9] = MRP2 vesicles, 0.1% BSA vs no BSA

T1 sequence (P02769 25-607): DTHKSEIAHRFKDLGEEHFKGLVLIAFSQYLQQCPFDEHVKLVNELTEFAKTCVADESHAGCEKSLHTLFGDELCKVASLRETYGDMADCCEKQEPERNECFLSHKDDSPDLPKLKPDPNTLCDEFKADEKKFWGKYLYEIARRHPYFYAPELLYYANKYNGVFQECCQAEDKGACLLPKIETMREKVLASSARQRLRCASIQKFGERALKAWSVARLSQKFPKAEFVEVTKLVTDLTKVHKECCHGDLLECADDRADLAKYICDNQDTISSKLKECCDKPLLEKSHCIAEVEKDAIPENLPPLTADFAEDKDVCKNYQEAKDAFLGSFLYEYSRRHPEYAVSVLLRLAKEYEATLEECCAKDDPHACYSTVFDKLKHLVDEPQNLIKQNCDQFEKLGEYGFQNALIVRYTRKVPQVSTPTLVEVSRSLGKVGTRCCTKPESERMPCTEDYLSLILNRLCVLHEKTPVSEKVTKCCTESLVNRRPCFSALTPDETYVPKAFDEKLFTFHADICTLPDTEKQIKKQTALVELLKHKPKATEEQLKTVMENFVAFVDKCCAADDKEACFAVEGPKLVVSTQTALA

Question: Which average fu ([1]; 0.1% BSA, average over concentrations) does the source give for “5(6)-carboxy-2’,7’-dichlorofluorescein [CDCF]” here?
Answer: 0.94

Question: What about the “fu (± SD)” value ([1]; 0.1% BSA, substrate 1 μM) of the same molecule?
Answer: 0.92 (± 0.02)

Question: What about the “fu (± SD)” value ([1]; 0.1% BSA, substrate 5 μM) of the same molecule?
Answer: 0.94 (± 0.02)

Question: What about the “fu (± SD)” value ([1]; 0.1% BSA, substrate 50 μM) of the same molecule?
Answer: 0.96 (± 0.01)

Question: What about the “fu (± SD)” value ([1]; 1.0% BSA, substrate 5 μM) of the same molecule?
Answer: 0.43 (± 0.02)

Question: What about the “fu (± SD)” value ([1]; 1.0% BSA, substrate 50 μM) of the same molecule?
Answer: 0.53 (± 0.02)

Question: What about the “fu (± SD)” value ([1]; 1.0% BSA, substrate 200 μM) of the same molecule?
Answer: 0.73 (± 0.03)

Question: What about the “increase of Vmax of uptake into MRP2 vesicles” value (human MRP2 [2]; 0.1% BSA vs no BSA) of the same molecule?
Answer: 2 fold

Question: What about the “increase of Km by BSA” value (human MRP2 [2]; [9]) of the same molecule?
Answer: ~63%

Question: What about the “increase of Vmax by BSA” value (human MRP2 [2]; [9]) of the same molecule?
Answer: roughly 110%

Question: What about the “Vmax in the presence of 0.1% BSA” value (human MRP2 [2]; MRP2 vesicles, Vmax in the absence of BSA set at 100%) of the same molecule?
Answer: 210.4 (± 21.1) %

Question: With `Oc1ccc2cc[nH]c2c1` [6-hydroxyindole] as the molecule, how does the “decrease in Km caused by albumin” value (UGT2A1) read?
Answer: > 20 fold

Question: Which results are given for `C[C@]12CC[C@@H]3c4ccc(O)cc4CC[C@H]3[C@@H]1CC[C@@H]2O[C@@H]1O[C@H](C(=O)O)[C@@H](O)[C@H](O)[C@H]1O` [E217βG]?
Answer: fu (± SD) ([1]; 0.1% BSA, substrate 15 μM): 0.96 (± 0.04); fu (± SD) ([1]; 0.1% BSA, substrate 50 μM): 1.00 (± 0.03); fu (± SD) ([1]; 0.1% BSA, substrate 150 μM): 0.98 (± 0.04); increase of Km by BSA (human MRP2 [2]; [9]): 36%

Question: For `CCN(CC)C(=O)/C(C#N)=C/c1cc(O)c(O)c([N+](=O)[O-])c1` [entacapone], which “increase in Vmax caused by albumin” value (UGT1A7) is on record?
Answer: up to 7 fold

Question: Which “increase in affinity caused by albumin” value (UGT2B7) does the source give for `Nc1nnc(-c2cccc(Cl)c2Cl)c(N)n1` [lamotrigine] here?
Answer: 7 fold

Question: With `CCCCCCCC/C=C\CCCCCCCC(=O)O` [oleic acid] as the molecule, how does the “effect on BCRP-mediated transport of mitoxantrone” value (BCRP [3]) read?
Answer: decrease BCRP-mediated transport of mitoxantrone

Question: What about the IC50 (human BCRP [4]) of the same molecule?
Answer: 28.2 µM

Question: And the “effect on BCRP-mediated transport of rosuvastatin” value (BCRP [5])?
Answer: decrease BCRP-mediated transport

Question: And the “effect on substrate uptake” value (human MRP2 [6])?
Answer: decreased the uptake of substrates

Question: Which “decrease in Km of hydroxylation caused by albumin” value [7] does the source give for `CC(=O)O[C@H]1C(=O)[C@@]2(C)[C@H]([C@H](OC(=O)c3ccccc3)[C@]3(O)C[C@H](OC(=O)[C@H](O)[C@@H](NC(=O)c4ccccc4)c4ccccc4)C(C)=C1C3(C)C)[C@]1(OC(C)=O)CO[C@@H]1C[C@@H]2O` [paclitaxel] here?
Answer: 3 fold

Question: For `O=C1NC(=O)C(c2ccccc2)(c2ccccc2)N1` [phenytoin], which “decrease in Km of hydroxylation caused by albumin” value [7] is on record?
Answer: 4 fold

Question: Which “increase in affinity caused by albumin” value (UGT2B7) does the source give for `Cc1cn([C@H]2C[C@H](N=[N+]=[N-])[C@@H](CO)O2)c(=O)[nH]c1=O` [zidovudine] here?
Answer: 10 fold

Question: Which “fu (± SD)” value ([1]; 0.1% BSA, substrate 20 μM) does the source give for Lucifer yellow [LY] here?
Answer: 0.98 (± 0.01)

Question: And the “fu (± SD)” value ([1]; 0.1% BSA, substrate 200 μM)?
Answer: 0.98 (± 0.03)

Question: What about the “increase in maximal LY uptake by BCRP” value (human BCRP [8]) of the same molecule?
Answer: 28%

Question: And the “increase in maximal LY uptake by BCRP” value (human BCRP [8]; listed as Lucifer yellow)?
Answer: 30%

Question: And the “Vmax in the presence of 0.1% BSA” value (human BCRP [8]; Vmax in the absence of BSA set at 100%)?
Answer: 127.5 (± 6.2) %

Question: And the Km (human BCRP [8]; read-out: Km with 0.1% BSA, 0.1% BSA)?
Answer: 33.5 µM

Question: And the Km (human BCRP [8]; read-out: Km without BSA)?
Answer: 31.2 µM
